{"source": "ChEMBL document CHEMBL3887007", "about": "“Estra-1,3,5(10),16-tetraene-3-carboxamide derivatives, processes for their preparation, pharmaceutical preparations comprising them and their use for preparing medicaments” (2016)", "biological_target": "T1, Aldo-keto reductase family 1 member C3 (Homo sapiens, UniProt P42330)", "T1 sequence (P42330 whole entry)": "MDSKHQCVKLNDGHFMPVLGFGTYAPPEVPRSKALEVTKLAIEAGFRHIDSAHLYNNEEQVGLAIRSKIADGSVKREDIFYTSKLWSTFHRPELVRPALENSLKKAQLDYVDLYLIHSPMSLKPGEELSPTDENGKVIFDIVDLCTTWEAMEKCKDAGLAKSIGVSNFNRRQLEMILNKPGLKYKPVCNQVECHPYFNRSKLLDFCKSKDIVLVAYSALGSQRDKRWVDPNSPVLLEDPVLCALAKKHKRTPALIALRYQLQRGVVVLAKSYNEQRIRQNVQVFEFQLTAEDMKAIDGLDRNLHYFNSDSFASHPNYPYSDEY", "assay": "Inhibitory Activity Assay: Essentially, the enzyme activity is measured by quantification of the Coumberol from Coumberone (Halim, M., Yee, D. J., and Sames, D., J. AM. CHEM. SOC. 130, 14123-14128 (2008) and Yee, D. J., Balsanek, V., Bauman, D. R., Penning, T. M., and Sames, D., Proc. Natl. Acad. Sci. USA 103, 13304-13309 (2006)). In this test, the increase of the highly fluorescent Coumberol by NADPH⿿(nicotinamide adenine dinucleotide phosphate)-dependent reduction of the non-fluorescent Coumberone by AKR1C3 can be determined.The enzyme used was recombinant human AKR1C3 (Aldo-keto reductase family 1 member C3) (GenBank Accession No. NM_003739). This was expressed in E. coli as GST (glutathione S transferase) fusion protein and purified by glutathione Sepharose affinity chromatography. The GST was removed by digestion with thrombin and subsequent size exclusion chromatography (Dufort, I., Rheault, P., Huang, X F., Soucy, P., and Luu-The, V., Endocrinology 140, 568-574 (1999)). […]", "note": "pIC50: −log10 of the molar value. Several values for one entry are separate records, joined by “and”; a condition that tells them apart may be missing. Equal entries are not always repeated.", "data": [{"compound": "C[C@]12CC[C@@H]3c4ccc(C(=O)NCC5(C(=O)O)CC5)cc4CC[C@H]3[C@@H]1CC=C2c1cncc(F)c1", "values": [{"measurement": "pIC50", "value": "8.04 and 7.99"}]}]}
